Measured values: patent US8685456B2, “Topical compositions comprising nanoparticles of an isoflavone” (DSM IP Assets B.V., priority 2005, dated 2014)

Columns and labels:
[1] = “swing” test (changing temperature test, 5° C./43° C.), microscopical examination; type: physicochemical; settings: O/W emulsions with genistein of example 7 after dry grinding in a Jet mill only (FIG. 7), 0.3%, 0.5% and 0.1% (1.0% elsewhere in the source); ten sequences 5° C./43° C., 24 hours each
Description: To further illustrate the benefits obtained with nanoparticles of genistein versus conventional crystalline genistein, the cosmetic formulations described above (#3 and #4) were submitted to a very challenging stability test: The formulations were stored at a temperature varying from 5° C. to 43° C. every 24 hours during 3 weeks. […] (cycles of 24 hours at each temperature).
To force the crystallization in a disperse system, a test was used in which the temperature is changed over a self-defined timeframe and in self-defined sequences. The test is called “swing” test (changing temperature test). The purpose of this test is to dissolve small particles at the higher temperature and to force re-crystallization at lower temperature. […] The following formulations were used for the “swing” test: […]
To force this crystallization the “swing” test was used and as minimum and maximum temperatures 5° C. and 43° C. were chosen. Each temperature was held over a period of 24 hours. The duration of this test was at first set to 20 days, which means that the samples run through a cooling/heating sequence (=1 sequence) 10 times.
FIGS. 5 to 7 show the results of the “swing” test. […] The following genistein samples and concentrations were employed and the emulsions were measured immediately after preparation and after subjecting the samples to ten sequences of the “swing” test: […]

[2] = Genistein particle size by laser diffraction technique (Mastersizer 2000); type: physicochemical
[3] = Example 1, after homogenization (42 passes) and spray-drying, re-dispersed in water
[4] = Example 1, after homogenization (42 passes, 1500 bar) with starch sodium octenyl succinate, aqueous suspension
[5] = Example 1, genistein powder before homogenization
[6] = Example 2, after homogenization (40 passes, 1500 bar) in water, no carrier
[7] = Example 2, after homogenization (42 passes) and spray-drying, re-dispersed in water
[8] = Example 2, after homogenization (42 passes), starch sodium octenyl succinate added after 40th pass
[9] = Example 2, genistein powder before homogenization
[10] = Example 3, after homogenization (40 passes, 1500 bar) in water, no carrier
[11] = Example 3, after homogenization (42 passes) and spray-drying, re-dispersed in water
[12] = Example 3, after homogenization (42 passes), starch sodium octenyl succinate added after 40th pass
[13] = Example 3, genistein powder before homogenization
[14] = Example 4, after homogenization (20 passes, 700 bar) in water, no carrier
[15] = Example 4, genistein powder before homogenization
[16] = Example 5, Table XI, headed after homogenization (42 passes) and spray-drying, maltodextrin added after 40th pass, suspension before drying
[17] = Example 5, Table XII, after homogenization (42 passes) and spray-drying, maltodextrin carrier, re-dispersed in water
[18] = Example 5, after homogenization (20 passes) as headed, text: 40 times, 1500 bar, in water, no carrier
[19] = Example 5, genistein powder before homogenization
[20] = Example 6, after homogenization (11 passages) in agitated bead mill with starch sodium octenyl succinate
[21] = Example 6, genistein powder before homogenization
[22] = Example 7, Table XIV, before milling and homogenization
[23] = Example 7, Table XV, before milling and homogenization
[24] = Example 7, after milling (Jet mill) and homogenization (12 times, 700 bar) with starch sodium octenyl succinate
[25] = Example 7, after milling, homogenization and spray drying

SMILES: O=c1c(-c2ccc(O)cc2)coc2cc(O)cc(O)c12 [Genistein, 4′,5,7-trihydroxyisoflavone]
- Change of particle size during the “swing” test [1]: significantly changed
- Average particle size D[3, 2] [2, 3]: 0.14 microns
- Average particle size D[4, 3] [2, 3]: 0.83 microns
- D (v, 0.1) [2, 3]: 0.07 microns
- D (v, 0.5) [2, 3]: 0.16 microns
- D (v, 0.9) [2, 3]: 2.86 microns
- Average particle size D[3, 2] [2, 4]: 0.15 microns
- Average particle size D[4, 3] [2, 4]: 0.97 microns
- D (v, 0.1) [2, 4]: 0.07 microns
- D (v, 0.5) [2, 4]: 0.17 microns
- D (v, 0.9) [2, 4]: 3.65 microns
- Average particle size D[3, 2] [2, 5]: 23.1 microns
- Average particle size D[4, 3] [2, 5]: 48.5 microns
- D (v, 0.1) [2, 5]: 17.1 microns
- D (v, 0.5) [2, 5]: 41.9 microns
- D (v, 0.9) [2, 5]: 91.0 microns
- Average particle size D[3, 2] [2, 6]: 0.14 microns
- Average particle size D[4, 3] [2, 6]: 0.76 microns
- D (v, 0.1) [2, 6]: 0.07 microns
- D (v, 0.5) [2, 6]: 0.16 microns
- D (v, 0.9) [2, 6]: 2.42 microns
- Average particle size D[3, 2] [2, 7]: 0.14 microns
- Average particle size D[4, 3] [2, 7]: 0.55 microns
- D (v, 0.1) [2, 7]: 0.07 microns
- D (v, 0.5) [2, 7]: 0.15 microns
- D (v, 0.9) [2, 7]: 1.14 microns
- Average particle size D[3, 2] [2, 8]: 0.14 microns
- Average particle size D[4, 3] [2, 8]: 0.41 microns
- D (v, 0.1) [2, 8]: 0.07 microns
- D (v, 0.5) [2, 8]: 0.16 microns
- D (v, 0.9) [2, 8]: 0.93 microns
- Average particle size D[3, 2] [2, 9]: 23.1 microns
- Average particle size D[4, 3] [2, 9]: 48.5 microns
- D (v, 0.1) [2, 9]: 17.1 microns
- D (v, 0.5) [2, 9]: 41.9 microns
- D (v, 0.9) [2, 9]: 91.0 microns
- Average particle size D[3, 2] [2, 10]: 0.14 microns
- Average particle size D[4, 3] [2, 10]: 0.76 microns
- D (v, 0.1) [2, 10]: 0.07 microns
- D (v, 0.5) [2, 10]: 0.16 microns
- D (v, 0.9) [2, 10]: 2.00 microns
- Average particle size D[4, 3] [2, 11]: 0.43 microns
- D (v, 0.1) [2, 11]: 0.07 microns
- D (v, 0.5) [2, 11]: 0.16 microns
- D (v, 0.9) [2, 11]: 0.97 microns
- Average particle size D[3, 2] [2, 12]: 0.14 microns
- Average particle size D[4, 3] [2, 12]: 0.40 microns
- D (v, 0.1) [2, 12]: 0.07 microns
- D (v, 0.5) [2, 12]: 0.16 microns
- D (v, 0.9) [2, 12]: 0.91 microns
- Average particle size D[3, 2] [2, 13]: 23.1 microns
- Average particle size D[4, 3] [2, 13]: 48.5 microns
- D (v, 0.1) [2, 13]: 17.1 microns
- D (v, 0.5) [2, 13]: 41.9 microns
- D (v, 0.9) [2, 13]: 91.0 microns
- Average particle size D[3, 2] [2, 14]: 0.13 microns
- Average particle size D[4, 3] [2, 14]: 0.83 microns
- D (v, 0.1) [2, 14]: 0.07 microns
- D (v, 0.5) [2, 14]: 0.15 microns
- D (v, 0.9) [2, 14]: 2.62 microns
- Average particle size D[3, 2] [2, 15]: 23.1 microns
- Average particle size D[4, 3] [2, 15]: 48.5 microns
- D (v, 0.1) [2, 15]: 17.1 microns
- D (v, 0.5) [2, 15]: 41.9 microns
- D (v, 0.9) [2, 15]: 91.0 microns
- Average particle size D[3, 2] [2, 16]: 0.14 microns
- Average particle size D[4, 3] [2, 16]: 0.41 microns
- D (v, 0.1) [2, 16]: 0.07 microns
- D (v, 0.5) [2, 16]: 0.16 microns
- D (v, 0.9) [2, 16]: 0.93 microns
- Average particle size D[3, 2] [2, 17]: 0.13 microns
- Average particle size D[4, 3] [2, 17]: 0.41 microns
- D (v, 0.1) [2, 17]: 0.07 microns
- D (v, 0.5) [2, 17]: 0.15 microns
- D (v, 0.9) [2, 17]: 0.93 microns
- Average particle size D[2, 3] [2, 18]: 0.14 microns
- Average particle size D[4, 3] [2, 18]: 0.42 microns
- D (v, 0.1) [2, 18]: 0.07 microns
- D (v, 0.5) [2, 18]: 0.16 microns
- D (v, 0.9) [2, 18]: 0.92 microns
- Average particle size D[2, 3] [2, 19]: 23.1 microns
- Average particle size D[4, 3] [2, 19]: 48.5 microns
- D (v, 0.1) [2, 19]: 17.8 microns
- D (v, 0.5) [2, 19]: 41.4 microns
- D (v, 0.9) [2, 19]: 90.2 microns
- Average particle size D[4, 3] [2, 20]: 0.23 microns
- D (v, 0.1) [2, 20]: 0.07 microns
- D (v, 0.5) [2, 20]: 0.16 microns
- D (v, 0.9) [2, 20]: 0.45 microns
- Average particle size D[4, 3] [2, 21]: 48.5 microns
- D (v, 0.1) [2, 21]: 17.8 microns
- D (v, 0.5) [2, 21]: 41.4 microns
- D (v, 0.9) [2, 21]: 90.2 microns
- Average particle size D[4, 3] [2, 22]: 48.5 microns
- D (v, 0.1) [2, 22]: 17.8 microns
- D (v, 0.5) [2, 22]: 41.4 microns
- D (v, 0.9) [2, 22]: 90.2 microns
- Average particle size D[4, 3] [2, 23]: 48.5 microns
- D (v, 0.1) [2, 23]: 17.8 microns
- D (v, 0.5) [2, 23]: 41.4 microns
- D (v, 0.9) [2, 23]: 90.2 microns
- Average particle size D[4, 3] [2, 24]: 0.53 microns
- D (v, 0.1) [2, 24]: 0.07 microns
- D (v, 0.5) [2, 24]: 0.18 microns
- D (v, 0.9) [2, 24]: 1.38 microns
- Average particle size D[4, 3] [2, 25]: 0.65 microns
- D (v, 0.1) [2, 25]: 0.08 microns
- D (v, 0.5) [2, 25]: 0.19 microns
- D (v, 0.9) [2, 25]: 1.84 microns
- Average particle size D[2, 3] ([2]; after homogenization (42 passes) and spray-drying, re-dispersed in water): 0.14 microns
